Among the data in patent US7737151B2, “Pyrazine kinase inhibitors” (Vertex Pharmaceuticals Incorporated, priority 2005, dated 2010) are Ki values, retold here.

As usually defined, the Ki is the equilibrium dissociation constant of an inhibitor or competing ligand from its target.

Some results are limits rather than exact numbers.

Format in all cases: biochemical
Assay [1] addresses T1, Aurora-2 (Aurora A) (Homo sapiens, UniProt O14965).
T1 sequence (O14965 1-403): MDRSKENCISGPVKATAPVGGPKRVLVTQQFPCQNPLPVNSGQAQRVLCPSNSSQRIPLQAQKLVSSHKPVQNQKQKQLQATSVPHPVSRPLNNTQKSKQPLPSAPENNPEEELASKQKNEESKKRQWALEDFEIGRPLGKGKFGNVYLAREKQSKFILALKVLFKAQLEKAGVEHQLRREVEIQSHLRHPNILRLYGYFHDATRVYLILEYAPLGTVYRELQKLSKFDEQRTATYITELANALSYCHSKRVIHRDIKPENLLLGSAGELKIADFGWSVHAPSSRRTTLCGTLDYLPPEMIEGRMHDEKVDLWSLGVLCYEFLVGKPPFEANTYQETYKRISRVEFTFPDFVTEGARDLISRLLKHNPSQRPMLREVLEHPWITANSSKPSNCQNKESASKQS
Description: Aurora-2 (Aurora A) Inhibition Assay, coupled enzyme assay. As to conditions: 400 μM ATP, 570 μM Kemptide, 40 nM Aurora-2, 30° C. How it is done:
Compounds are screened for their ability to inhibit Aurora-2 using a standard coupled enzyme assay (Fox et al., Protein Sci., (1998) 7, 2249). Assays are carried out in a mixture of 100 mM Hepes (pH7.5), 100 mM MgCl2, 1 mM DTT, 25 mM NaCl, 2.5 mM phosphoenolpyruvate, 300 μM NADH, 30 μg/ml pyruvate kinase and 10 μg/ml lactate dehydrogenase. Final substrate concentrations in the assay are 400 μM ATP (Sigma Chemicals) and 570 μM peptide (Kemptide, American Peptide, Sunnyvale, Calif.). Assays are carried out at 30° C. and in the presence of 40 nM Aurora-2.
An assay stock buffer solution is prepared containing all of the reagents listed above, with the exception of Aurora-2 and the test compound of interest. 55 μl of the stock solution is placed in a 96 well plate followed by addition of 2 μl of DMSO stock containing serial dilutions of the test compound (typically starting from a final concentration of 7.5 μM). The plate is preincubated for 10 minutes at 30° C. and the reaction initiated by addition of 10 μl of Aurora-2. Initial reaction rates are determined with a Molecular Devices SpectraMax Plus plate reader over a 10 minute time course. IC50 and Ki data are calculated from non-linear regression analysis using the Prism software package (GraphPad Prism version 3.0cx for Macintosh, GraphPad Software, San Diego Calif., USA). Compounds I-1 and I-2 inhibit Aurora-2 at a Ki value of <0.1 uM.

Assay [2] concerns the target T2, FLT-3 (Homo sapiens, UniProt P36888).
T2 sequence (P36888 27-993): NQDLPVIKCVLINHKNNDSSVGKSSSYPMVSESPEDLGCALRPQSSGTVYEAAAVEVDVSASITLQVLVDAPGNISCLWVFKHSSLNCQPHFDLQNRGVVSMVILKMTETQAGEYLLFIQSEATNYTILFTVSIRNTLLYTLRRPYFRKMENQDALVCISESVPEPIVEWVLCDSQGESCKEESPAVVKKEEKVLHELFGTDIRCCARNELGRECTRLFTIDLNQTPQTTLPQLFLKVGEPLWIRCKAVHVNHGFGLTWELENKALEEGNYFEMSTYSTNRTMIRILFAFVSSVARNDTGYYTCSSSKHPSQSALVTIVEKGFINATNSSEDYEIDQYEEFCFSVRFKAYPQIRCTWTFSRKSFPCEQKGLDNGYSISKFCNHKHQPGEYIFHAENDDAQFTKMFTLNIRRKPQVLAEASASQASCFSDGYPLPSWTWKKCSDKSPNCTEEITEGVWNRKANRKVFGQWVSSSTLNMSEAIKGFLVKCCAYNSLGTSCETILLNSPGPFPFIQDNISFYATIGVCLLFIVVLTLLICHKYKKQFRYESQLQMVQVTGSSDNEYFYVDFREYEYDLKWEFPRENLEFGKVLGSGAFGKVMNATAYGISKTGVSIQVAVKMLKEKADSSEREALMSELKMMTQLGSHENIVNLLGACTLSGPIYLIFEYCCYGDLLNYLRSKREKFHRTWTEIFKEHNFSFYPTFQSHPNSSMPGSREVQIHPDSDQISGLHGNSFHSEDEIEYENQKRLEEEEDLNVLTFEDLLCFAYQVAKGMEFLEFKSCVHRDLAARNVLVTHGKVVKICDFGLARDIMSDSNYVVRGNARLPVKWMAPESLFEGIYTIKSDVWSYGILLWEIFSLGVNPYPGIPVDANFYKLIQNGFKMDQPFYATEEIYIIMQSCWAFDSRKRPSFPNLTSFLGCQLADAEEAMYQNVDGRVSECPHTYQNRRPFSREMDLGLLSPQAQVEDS
The assay can be described thus: FLT-3 Inhibition Assay, radiometric filter-binding. The conditions noted are these: 90 μM ATP, 0.5 mg/ml pE4Y, room temperature. As to the method: Compounds are screened for their ability to inhibit FLT-3 activity using a radiometric filter-binding assay. This assay monitors the 33P incorporation into a substrate poly(Glu, Tyr) 4:1 (pE4Y). Reactions are carried out in a solution containing 100 mM HEPES (pH 7.5), 10 mM MgCl2, 25 mM NaCl, 1 mM DTT, 0.01% BSA and 2.5% DMSO. Final substrate concentrations in the assay are 90 μM ATP and 0.5 mg/ml pE4Y (both from Sigma Chemicals, St Louis, Mo.). The final concentration of a compound of the present invention is generally between 0.01 and 5 μM. Typically, a 12-point titration is conducted by preparing serial dilutions from 10 mM DMSO stock of test compound. Reactions are carried out at room temperature.
Two assay solutions are prepared. Solution 1 contains 100 mM HEPES (pH 7.5), 10 mM MgCl2, 25 mM NaCl, 1 mg/ml pE4Y and […] (containing 0.3 mCi of [γ-33^P]ATP for each reaction). Solution 2 contains 100 mM HEPES (pH 7.5), 10 mM MgCl2, 25 mM NaCl, 2 mM DTT, 0.02% BSA and 3 nM FLT-3. The assay is run on a 96 well plate by mixing 50 μl each of Solution 1 and […] of the compounds of the present invention. The reaction is initiated with Solution 2. […] The amount of ^33P incorporation into pE4y is analyzed by a Packard Top Count Microplate Scintillation Counter (Meriden, Conn.). […]

Assay [3] addresses Aurora-1 (Aurora B) (Homo sapiens, UniProt Q96GD4). The assay can be described thus: Aurora-1 (Aurora B) Inhibition Assay (Radiometric). The conditions noted are these: 800 μM ATP, Kemptide, 25° C.; read-out: Ki, Aurora-1 (Aurora B) radiometric assay (sentence prints Aurora-2). How it is done: An assay buffer solution is prepared which consisted of 25 mM HEPES (pH 7.5), 10 mM MgCl2, 0.1% BSA and 10% glycerol. A 22 nM Aurora-B solution, also containing 1.7 mM DTT and 1.5 mM Kemptide (LRRASLG), is prepared in assay buffer. To 22 μL of the Aurora-B solution, in a 96-well plate, is added 2 μl of a compound stock solution in DMSO and the mixture allowed to equilibrate for 10 minutes at 25° C. The enzyme reaction is initiated by the addition of 16 μl stock [γ-^33P]-ATP solution (˜20 nCi/μL) prepared in assay buffer, to a final assay concentration of 800 μM. The reaction is stopped after 3 hours by the addition of 16 μL 500 mM phosphoric acid and the levels of ^33P incorporation into the peptide substrate are determined by the following method. […] Levels of non-enzyme catalysed background radioactivity are determined by adding 16 μL of the 500 mM phosphoric acid to control wells, containing all assay components (which acts to denature the enzyme), prior to the addition of the [γ-^33P]-ATP solution. Levels of enzyme catalysed ^33P incorporation are calculated by subtracting mean background counts from those measured at each inhibitor concentration. […] Ki values are calculated from initial rate data by non-linear regression using the Prism software package (Prism 3.0, Graphpad Software, San Diego, Calif.). […]

Aurora-1 (Aurora B), sequence (Q96GD4 whole entry): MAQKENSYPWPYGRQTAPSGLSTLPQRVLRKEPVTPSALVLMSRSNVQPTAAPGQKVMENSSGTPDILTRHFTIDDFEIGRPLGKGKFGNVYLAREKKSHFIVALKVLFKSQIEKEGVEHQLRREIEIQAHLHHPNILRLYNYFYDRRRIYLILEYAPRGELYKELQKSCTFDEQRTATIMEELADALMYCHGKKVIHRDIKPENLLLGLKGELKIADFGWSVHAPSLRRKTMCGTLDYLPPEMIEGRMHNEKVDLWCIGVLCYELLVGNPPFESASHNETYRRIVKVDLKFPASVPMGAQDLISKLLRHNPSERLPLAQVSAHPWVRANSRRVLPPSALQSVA

On to `Cc1cnc(Nc2cncc(Sc3ccc(NC(=O)C4CC4)cc3)n2)s1` [Compound I-1, N-(4-(6-(5-methylthiazol-2ylamino)pyrazin-2-ylthio)phenyl)cyclopropanecarboxamide], for which the inhibition constant (Ki) was less than 100 nM in assay [1] and less than 1000 nM in assay [2].
On to `Cc1cc(Nc2cncc(Sc3ccc(NC(=O)C4CC4)cc3)n2)[nH]n1` [Compound I-2, N-(4-(6-(3-methyl-1H-pyrazol-5-ylamino)pyrazin-2-ylthio)phenyl)cyclopropanecarboxamide], for which the inhibitory constant (Ki) in assay [1] was less than 100 nM; in assay [3], less than 1000 nM; in assay [2], less than 1000 nM.
